Experimental findings from patent publication US20240059703A1 (AMGEN INC., priority 2021, published 2024) are described below.

pIC50: −log10 of the molar value.

The first assay deals with KRAS G12C (Homo sapiens (Human), UniProt P01116, C118A/G12C). The assay can be described thus: 2 h coupled exchange assay. It is filed as biochemical. The following applies: Avg 2 h Coupled exchange IC50, 2 h compound pre-incubation, SOS-mediated nucleotide exchange. The protocol: The term “2 h coupled exchange assay” or “20 h coupled exchange assay” as used herein refers to the assay described in the Section entitled “BIOLOGICAL EVALUATION.”
Sequence of KRAS G12C (P01116 other isoform, or with tags, fused parts or gaps G12C/C118A): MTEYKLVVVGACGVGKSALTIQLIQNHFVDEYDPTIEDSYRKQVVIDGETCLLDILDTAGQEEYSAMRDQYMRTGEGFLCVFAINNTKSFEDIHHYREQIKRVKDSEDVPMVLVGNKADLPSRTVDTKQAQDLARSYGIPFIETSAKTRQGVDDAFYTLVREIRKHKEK
`C=CC(=O)N1CC2(CCN(c3nc4c(c(-c5c(C)ccc6[nH]ncc56)c3C#N)CC(C)(C)C4)[C@H]2C)C1` (atropisomer, axis not shown; (P)) [Example 13-53, (P)-6,6-dimethyl-4-(5-methyl-1H-indazol-4-yl)-2-((5S)-5-methyl-2-(2-propenoyl)-2,6-diazaspiro[3.4]octan-6-yl)-6,7-dihydro-5H-cyclopenta[b]pyridine-3-carbonitrile] showed a negative-log IC50 (pIC50) of 6.18.

As to `CN(C)C/C=C/C(=O)N1CC2(CCN(c3nc4c(c(-c5cc(O)cc6ccccc56)c3C#N)CC[C@@H]3C[C@H]43)C2)C1` (atropisomer, axis not shown; (P)) [Example 13-87, (P)-(6aR,7aS)-2-(2-((2E)-4-(dimethylamino)-2-butenoyl)-2,6-diazaspiro[3.4]octan-6-yl)-4-(3-hydroxy-1-naphthalenyl)-6,6a,7,7a-tetrahydro-5H-cyclopropa[h]quinoline-3-carbonitrile], the pIC50 was 6.89.

The compound `CN(C)C/C=C/C(=O)N1CC2(CCN(c3nc4c(c(-c5cc(O)cc6ccccc56)c3C#N)CC[C@H]3C[C@@H]43)C2)C1` (racemic) [Example 13-86, (M)-(6aR,7aS)-2-(2-((2E)-4-(dimethylamino)-2-butenoyl)-2,6-diazaspiro[3.4]octan-6-yl)-4-(3-hydroxy-1-naphthalenyl)-6,6a,7,7a-tetrahydro-5H-cyclopropa[h]quinoline-3-carbonitrile and (M)-(6aS,7aR)-2-(2-((E)-4-(dimethylamino)but-2-enoyl)-2,6-diazaspiro[3.4]octan-6-yl)-4-(3-hydroxynaphthalen-1-yl)-6,6a,7,7a-tetrahydro-5H-cyclopropan[h]quinoline-3-carbonitrile] had a pIC50 of 4.69.

Turning to `C=CC(=O)N1CC2(CCN(c3nc4c(c(-c5c(C)ccc6[nH]ncc56)c3C)CCC(C)(C)C4)C2)C1` (single isomer, unassigned) [Example 2-12, (M)-1-(6-(3,7,7-trimethyl-4-(5-methyl-1H-indazol-4-yl)-5,6,7,8-tetrahydro-2-quinolinyl)-2,6-diazaspiro[3.4]octan-2-yl)-2-propen-1-one], the pIC50 was 5.95.

`C=CC(=O)N1CC2(CCN(c3nc4c(c(-c5cccc6cc(O)ccc56)c3C)CCC(C)(C)C4)C2)C1` (single isomer, unassigned) [Example 2-14, (M)-1-(6-(4-(6-hydroxy-1-naphthalenyl)-3,7,7-trimethyl-5,6,7,8-tetrahydro-2-quinolinyl)-2,6-diazaspiro[3.4]ctan-2-yl)-2-opropen-1-one]: the negative-log IC50 (pIC50) was 5.54.

In turn, `C=CC(=O)N1CC2(CCN(c3nc4c(c(-c5ccc(F)c6sc(N)nc56)c3C)CCC(C)(C)C4)C2)C1` (single isomer, unassigned) [Example 2-18] had a pIC50 of 5.28.

Compound `C=CC(=O)N1CC2(CCN(c3nc4c(c(-c5c(C)ccc6cnn(C)c56)c3C)CCC(C)(C)C4)C2)C1` (single isomer, unassigned) [Example 2-20, (M)-1-(6-(4-(1,6-dimethyl-1H-indazol-7-yl)-3,7,7-trimethyl-5,6,7,8-tetrahydro-2-quinolinyl)-2,6-diazaspiro[3.4]octan-2-yl)-2-propen-1-one] had a pIC50 of 4.98.

The compound `C=CC(=O)N1CC2(CCN(c3nc4c(c(-c5c(C)ccc6cn[nH]c56)c3C)CCC(C)(C)C4)C2)C1` (single isomer, unassigned) [Example 2-24, (P)-1-(6-(3,7,7-trimethyl-4-(6-methyl-1H-indazol-7-yl)-5,6,7,8-tetrahydro-2-quinolinyl)-2,6-diazaspiro[3.4]octan-2-yl)-2-propen-1-one] had a pIC50 of 6.92.

`C=CC(=O)N1CC2(CCN(c3nc4c(c(-c5c(C)ccc6cn[nH]c56)c3C)CCC(C)(C)C4)C2)C1` (single isomer, unassigned) [Example 2-25, (M)-1-(6-(3,7,7-trimethyl-4-(6-methyl-1H-indazol-7-yl)-5,6,7,8-tetrahydro-2-quinolinyl)-2,6-diazaspiro[3.4]octan-2-yl)-2-propen-1-one] had a pIC50 of 5.16.

Turning to `C=CC(=O)N1CC2(CCN(c3nc4c(c(-c5cc(O)cc6cccnc56)c3C#N)C[C@H]3C[C@@H]4C3(C)C)C2)C1` (single isomer, unassigned) [Example 2-44], the negative-log IC50 (pIC50) was 3.88.

Compound `C=CC(=O)N1CC2(CCN(c3nc4c(c(-c5cc(O)cc6ncccc56)c3C#N)C[C@H]3C[C@@H]4C3(C)C)C2)C1` (single isomer, unassigned) [Example 2-47] showed a pIC50 of 6.74.

Take `C=CC(=O)N1CC2(CCN(c3cc4c(c(-c5cc(O)cc6ccccc56)c3C#N)OCCC4)C2)C1` (single isomer, unassigned) [Example 2-53, (P)-8-(3-hydroxy-1-naphthalenyl)-6-(2-(2-propenoyl)-2,6-diazaspiro[3.4]octan-6-yl)-3,4-dihydro-2H-chromene-7-carbonitrile]: the pIC50 is 5.15.

In turn, `C=CC(=O)N1CC2(CCN(c3nc4ccccc4c(-c4c(C)ccc5[nH]ncc45)c3C)C2)C1` (single isomer, unassigned) [Example 2-55, (P)-1-(6-(3-methyl-4-(5-methyl-1H-indazol-4-yl)-2-quinolinyl)-2,6-diazaspiro[3.4]octan-2-yl)-2-propen-1-one] gave a pIC50 of 6.38.

`C=CC(=O)N1CC2(CCN(c3nc4ccccc4c(-c4c(C)ccc5[nH]ncc45)c3C)C2)C1` (single isomer, unassigned) [Example 2-56, (M)-1-(6-(3-methyl-4-(5-methyl-1H-indazol-4-yl)-2-quinolinyl)-2,6-diazaspiro[3.4]octan-2-yl)-2-propen-1-one] showed a pIC50 of 4.36.

`C=CC(=O)N1CC2(CCN(c3nc4cc(F)ccc4c(-c4c(C)ccc5[nH]ncc45)c3C)[C@@H]2C)C1` (single isomer, unassigned) [Example 2-59] had a pIC50 of 4.83.

`C=CC(=O)N1CC2(CCN(c3nc4cc(F)ccc4c(-c4c(C)ccc5[nH]ncc45)c3C)[C@H]2C)C1` (single isomer, unassigned) [Example 2-60] had a pIC50 of 5.33.

In turn, `C=CC(=O)N1CC2(CCN(c3nc4c(c(-c5cc(O)ccc5C)c3C#N)C[C@H]3C[C@@H]4C3(C)C)C2)C1` (single isomer, unassigned) [Example 2-68] had a pIC50 of 4.80.

Turning to `C=CC(=O)N1CC2(CCN(c3nc4c(c(-c5cccc(F)c5O)c3C#N)C[C@H]3C[C@@H]4C3(C)C)C2)C1` (single isomer, unassigned) [Example 2-71], the negative logarithm of the IC50 (pIC50) was 4.69.

For the compound `C=CC(=O)N1CC2(CCN(c3nc4c(c(-c5cccc(F)c5O)c3C#N)C[C@H]3C[C@@H]4C3(C)C)C2)C1` (single isomer, unassigned) [Example 2-72], the pIC50 was 6.19.

On to `C=CC(=O)N1CC2(CCN(c3nc4c(c(-c5cc(O)ccc5Cl)c3C#N)C[C@H]3C[C@@H]4C3(C)C)C2)C1` (single isomer, unassigned) [Example 2-75], for which the negative logarithm of the IC50 (pIC50) was 6.34.

In turn, `C=CC(=O)N1CC2(CCN(c3nc4c(c(-c5cc(O)ccc5C)c3Cl)COC(C)(C)C4)C2)C1` (single isomer, unassigned) [Example 2-80, (M)-1-(6-(3-chloro-4-(5-hydroxy-2-methylphenyl)-7,7-dimethyl-7,8-dihydro-5H-pyrano[4,3-b]pyridin-2-yl)-2,6-diazaspiro[3.4]octan-2-yl)-2-propen-1-one] showed a pIC50 of 4.70.

`C=CC(=O)N1CC2(CCN(c3nc4c(c(-c5c(C)ccc6[nH]ncc56)c3Cl)COC(C)(C)C4)C2)C1` (single isomer, unassigned) [Example 2-84, (P)-1-(6-(3-chloro-7,7-dimethyl-4-(5-methyl-1H-indazol-4-yl)-7,8-dihydro-5H-pyrano[4,3-b]pyridin-2-yl)-2,6-diazaspiro[3.4]octan-2-yl)-2-propen-1-one] showed a pIC50 of 6.09.

`C=CC(=O)N1CC2(CCN(c3nc4c(c(-c5c(C)ccc6[nH]ncc56)c3Cl)COC(C)(C)C4)C2)C1` (single isomer, unassigned) [Example 2-85, (M)-1-(6-(3-chloro-7,7-dimethyl-4-(5-methyl-1H-indazol-4-yl)-7,8-dihydro-5H-pyrano[4,3-b]pyridin-2-yl)-2,6-diazaspiro[3.4]octan-2-yl)-2-propen-1-one] had a pIC50 of 4.90.

As for `C=CC(=O)N1CC2(CCN(c3nc4c(c(-c5c(C)ccc6cnn(C)c56)c3Cl)COC(C)(C)C4)C2)C1` (single isomer, unassigned) [Example 2-87, (M)-1-(6-(3-chloro-4-(1,6-dimethyl-1H-indazol-7-yl)-7,7-dimethyl-7,8-dihydro-5H-pyrano[4,3-b]pyridin-2-yl)-2,6-diazaspiro[3.4]octan-2-yl)-2-propen-1-one], the pIC50 was 6.94.

In turn, `C=CC(=O)N1CC2(CCN(c3nc4c(c(-c5c(C)ccc6cnn(C)c56)c3Cl)COC(C)(C)C4)C2)C1` (single isomer, unassigned) [Example 2-88, (P)-1-(6-(3-chloro-4-(1,6-dimethyl-1H-indazol-7-yl)-7,7-dimethyl-7,8-dihydro-5H-pyrano[4,3-b]pyridin-2-yl)-2,6-diazaspiro[3.4]octan-2-yl)-2-propen-1-one] showed a pIC50 of 5.33.

With `C=CC(=O)N1CC2(CCN(c3nc4c(c(-c5c(C)c(Cl)cc6cnn(C)c56)c3Cl)COC(C)(C)C4)C2)C1` (single isomer, unassigned) [Example 2-90, (M)-1-(6-(3-chloro-4-(5-chloro-1,6-dimethyl-1H-indazol-7-yl)-7,7-dimethyl-7,8-dihydro-5H-pyrano[4,3-b]pyridin-2-yl)-2,6-diazaspiro[3.4]octan-2-yl)-2-propen-1-one], the pIC50 was 8.30.

Still in this assay, the particulars now being: read-out: Avg 2 h Coupled exchange IC50, 2 h compound pre-incubation.
For the compound `C=CC(=O)N1CC2(CCN(c3nc4ccccc4c(-c4c(C)ccc5[nH]ncc45)c3C=C)C2)C1` (atropisomer, axis not shown; (M)) [Example 26-2, (M)-1-(6-(3-ethenyl-4-(5-methyl-1H-indazol-4-yl)-2-quinolinyl)-2,6-diazaspiro[3.4]octan-2-yl)-2-propen-1-one], the pIC50 was 4.46.
